In patent US10710996B2, “Pyrido-azaheterecydic compound and preparation method and use thereof” (SHANGHAI INSTITUTE OF MATERIA MEDICA, CHINESE ACADEMY OF …, priority 2015, dated 2020):
Like-named read-outs stand apart in the source and are kept apart here.

Tests used:
EBC-1 cells = assay: Inhibition of c-Met-mediated EBC-1 cell proliferation (SRB staining); format: cell-based; settings: Homo sapiens, 72 hours treatment
Protocol: The inhibitory effect of the compounds on the growth of non-small cell cancer EBC-1 cell (a cell line in which Met is continually activated due to the amplification of MET gene, and is a Met-dependent tumor cell line) was measured by sulforhodamine B (SRB) staining assay. A certain amount of EBC-1 cells in their logarithmic growth phase were seeded in 96-well plates at 90 μL per well and cultured overnight, then 10 μL of different concentrations of compounds or solvent control were added thereto, three wells for each concentration. After treated by the compound for 72 hours, the adherent cells were removed of culture medium and fixed with 10% (w/v) trichloroacetic acid (100 μL/well) at 4° C. for 1 hr followed by rinsing with distilled water five times. After drying at room temperature, 100 μL of SRB solution (dissolved in 1% glacial acetic acid at 4 mg/mL) was added to each well to incubate and stain the cells for 15 min at room temperature, then unbound SRB was washed off with 1% glacial acetic acid for five times. After drying at room temperature, 100 μL of 10 mM Tris solution was added to each well. The optical density (OD value) at 515 nm was read on a VERSMax microplate reader. […] The experiment was repeated twice. The IC50 data was calculated as a range based on the test results of concentrations set in the initial screening test.

[1] = Pharmacokinetic test in rats; format: in vivo, Sprague-Dawley rats; settings: male, Sprague-Dawley, plasma, rat; for MRT: read-out: MRT
Protocol: 14 male Sprague-Dawley rats, weigh 200-220 g, were randomly divided into 4 groups with 4/3 in each group. The rats were intragastrically and intravenously administered with compound 7S and 8S respectively. The compounds were dissolved in normal saline containing 5% of DMSO and solubilized with 5% of tween-80 (Tween 80), and the final concentration of the sample was 1 mg/ml.
The rats were fasted 12 h before the test, free drinking water. They were fed 2 h after administration.
gavage administration: 0.25 h, 0.5 h, 1.0 h, 2.0 h, 3.0 h, 4.0 h, 6.0 h, 8.0 h and 24 h after administration;
intravenous administration: 5 min, 0.25 h, 0.5 h, 1.0 h, 2.0 h, 4.0 h, 6.0 h, 8.0 h and 24 h after administration;
0.3 ml venous blood was collected from the retrobulbar venous plexus of rats at the above time point, and placed in a heparinized tube and centrifuged at 11000 rpm for 5 min. The plasma was separated and frozen in a refrigerator at −20° C.
The concentrations of the compounds in rat plasma were measured by LC/MS/MS.
Pharmacokinetic parameters after administration were calculated using the non-compartmental model of the Phoenix 1.3 software (Pharsight, U.S.A.).
Peak concentration Cmax and peak time Tmax were the measured values;
The area under the curve of the drug concentration vs. time AUC0-t value: calculated according to trapezoidal rule; AUC0-∞=AUC0-t+Ct/ke, Ct is the plasma concentration at the last measurable time point, ke is the elimination rate constant;
Elimination half-life t1/2=0.693/ke;
Average retention time MRT=AUMC/AUC.
Clearance rate CL=D/AUC0-∞;
Volume of distribution at steady state Vss=CL×MRT

c-Met kinase = molecular target: T1, c-Met kinase (Homo sapiens, UniProt P08581); assay: Inhibitory effect on c-Met kinase activity at molecular level (ELISA); format: biochemical;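 note: recombinant c-Met kinase domain with 5 µM ATP, 1 h at 37 °C, substrate phosphorylation detected by anti-phosphotyrosine PY99 ELISA at 490 nm versus DMSO negative control, ATP-free wells as blank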
T1 construct: c-Met kinase domain recombinant protein diluted with 49 μL of the reaction buffer was added
T1 sequence (P08581 1078-1345 limits assumed): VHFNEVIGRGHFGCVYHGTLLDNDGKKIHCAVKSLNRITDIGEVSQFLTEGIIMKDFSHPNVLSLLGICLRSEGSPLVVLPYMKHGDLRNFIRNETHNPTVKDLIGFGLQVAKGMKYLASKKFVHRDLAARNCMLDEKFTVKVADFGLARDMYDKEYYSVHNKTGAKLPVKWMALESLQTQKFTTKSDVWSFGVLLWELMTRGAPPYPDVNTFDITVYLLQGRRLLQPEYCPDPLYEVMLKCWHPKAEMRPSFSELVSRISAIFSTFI
Protocol: Experiment for Preliminarily Evaluating the Inhibitory Effect on the Activity of Receptor Tyrosine Kinase c-Met at Molecular Level
After discarding the liquid in the wells, the plate was washed with T-PBS (0.1% Tween-20 in PBS) in an amount of 200 μL/well three times, each for 5 minutes. The ELISA plate was dried in an oven at 37° C. for 1-2 hours. 50 μl of adenosine triphosphate (ATP) solution diluted with reaction buffer (50 mM 4-hydroxyethylpiperazine ethanesulfonic acid (HEPES) pH 7.4, 50 mM MgCl2, 0.5 mM MnCl2, 0.2 mM Na3VO4, 1 mM dithiothreitol (DTT)) to a final concentration of 5 μM was added to each well. The compounds were diluted to an appropriate concentration with DMSO (1 μL/well) or a solution containing DMSO in a corresponding concentration (negative control well), and then c-Met kinase domain recombinant protein diluted with 49 μL of the reaction buffer was added therein to initiate the reaction, with two ATP-free control wells for each test. The plate was placed in a shaker (100 rpm) at 37° C. for reacting 1 hour, and washed with T-PBS three times. Primary antibody PY99 diluent was added in an amount of 100 μL/well to allow the reaction in a shaker at 37° C. for 0.5 hour, and then the plate was washed with T-PBS three times. Then the secondary antibody horseradish peroxidase labeled goat anti-mouse IgG diluent was added in an amount of 100 μL/well, and the plate was placed in a shaker at 37° C. for reacting 0.5 hour, and then washed with T-PBS three times. 2 mg/ml of o-phenylenediamine (OPD) coloring solution (diluted with 0.1 M citric acid-sodium citrate buffer (pH=5.4) containing 0.03% H2O2) was then added at 100 μL/well and reacted at 25° C. for 1-10 min with light blocked (ultrasound was required to dissolve OPD, the coloring solution was prepared when needed). The reaction was stopped by adding 2 M of H2SO4 in an amount of 50 μL/well, and a wavelength-adjustable microplate reader SPECTRA MAX 190 was read at 490 nm.
The inhibition rate of the sample was calculated by the following equation:

[2] = test system: human lung cancer EBC-1 xenograft tumor; assay: Growth inhibition of subcutaneous xenograft tumor of human lung cancer EBC-1 in nude mice; format: in vivo; settings: 50 mg/kg qd/21 po
Protocol: EBC-1 cells were subcutaneously inoculated into the armpit on the right side of the nude mice in an amount of 5×10^6/mouse respectively to form xenograft tumor, which were then passaged in nude mice for three generations. Tumor tissue that was growing vigorously was cut into about 1.5 mm^3 under sterile conditions, and subcutaneously inoculated into the armpit on the right side of the nude mice, and the diameter of the xenograft tumor was measured with a vernier caliper. The diameter of the subcutaneous xenograft tumor in nude mice was measured with a vernier caliper. […] The diameter of xenograft tumor was measured twice a week and the body weight of mice was weighed during the whole experiment. The tumor volume (TV) was calculated by the following equation: TV=½×a×b^2, wherein a and b represent the length and width, respectively. The relative tumor volume (RTV) was calculated based on the measured results, and the calculation equation thereof is: RTV=Vt/V0, wherein V0 is the tumor volume measured when the mice were divided in different cages and administered (i.e., d0) and Vt is the tumor volume measured each time.

[3] = po, intragastric (gavage) 10 mg/kg, mean

SMILES: O=C(Nc1ccc(F)cc1)C1(C(=O)Nc2ccc(Oc3ccnc4cc(OCCCN5CCOCC5)ncc34)c(F)c2)CC1 [Compound 8S]
- IC50 (EBC-1 cells): 10 to 100 nM
- bioavailability ([1]; oral, gavage 10 mg/kg vs intravenous 5 mg/kg, read-out: F (absolute bioavailability)): 38.6%
- AUC(0-inf) [1, 3]: 6870 ng·h/mL
- AUC(0-t) [1, 3]: 6780 ng·h/mL
- Cmax [1, 3]: 2060 ng/mL
- Tmax [1, 3]: 1.25 h
- half-life [1, 3]: 1.49 h
- AUC(0-inf) ([1]; intravenous 5 mg/kg, mean): 8810 ng·h/mL
- AUC(0-t) ([1]; intravenous 5 mg/kg, mean): 8770 ng·h/mL
- clearance ([1]; intravenous 5 mg/kg, mean): 9.58 mL/min/kg
- half-life ([1]; intravenous 5 mg/kg, mean): 1.15 h
- Vd ([1]; intravenous 5 mg/kg, mean, read-out: Vss): 0.667 L/kg
- MRT ([1]; iv, 5 mg/kg, intravenous 5 mg/kg, mean): 1.17 h
- MRT ([1]; po, 10 mg/kg, intragastric (gavage) 10 mg/kg, mean): 2.71 h
- IC50 (c-Met kinase): 1 to 10 nM

SMILES: O=C(Nc1ccc(F)cc1)C1(C(=O)Nc2ccc(Oc3ccnc4cc(Cn5ccnc5)ncc34)c(F)c2)CC1 [Compound 44S, N-(4-((7-((1H-imidazol-1-yl)methyl)-1,6-naphthyridin-4-yl)oxy)-3-fluorophenyl)-N-(4-fluorophenyl)cyclopropyl-1,1-dicarboxamide]
- IC50 (EBC-1 cells): 100 to 1000 nM
- IC50 (c-Met kinase): 10 to 100 nM

SMILES: Cc1noc(C)c1-c1cc2nccc(Oc3ccc(NC(=O)C4(C(=O)Nc5ccc(F)cc5)CC4)cc3F)c2cn1 [Compound 45S, N-(4-((7-(3,5-dimethylisoxazol-4-yl)-1,6-naphthyridin-4-yl)oxy)-3-fluorophenyl)-N-(4-fluorophenyl) cyclopropyl-1,1-dicarboxamide]
- IC50 (EBC-1 cells): 1000 to 10000 nM
- IC50 (c-Met kinase): 100 to 1000 nM

SMILES: O=C(Nc1ccc(F)cc1)C1(C(=O)Nc2ccc(Oc3ccnc4cc(-c5ccncc5)ncc34)c(F)c2)CC1 [Compound 46S, N-(3-fluoro-4-((7-(pyridin-4-yl)-1,6-naphthyridin-4-yl)oxy)phenyl)-N-(4-fluorophenyl)cyclopropyl-1,1-dicarboxamide]
- IC50 (EBC-1 cells): 100 to 1000 nM
- IC50 (c-Met kinase): 1 to 10 nM

SMILES: O=C(Nc1ccc(F)cc1)C1(C(=O)Nc2ccc(Oc3ccnc4cc(-c5cncnc5)ncc34)c(F)c2)CC1 [Compound 47S, N-(3-fluoro-4-((7-(pyrimidin-5-yl)-1,6-naphthyridin-4-yl)oxy)phenyl)-N-(4-fluorophenyl)cyclopropyl-1,1-dicarboxamide]
- IC50 (EBC-1 cells): 10 to 100 nM
- IC50 (c-Met kinase): 1 to 10 nM

SMILES: O=C(Nc1ccc(F)cc1)C1(C(=O)Nc2ccc(Oc3ccnc4cc(-c5ccc(F)c(F)c5)ncc34)c(F)c2)CC1 [Compound 49S, N-(3-fluoro-4-((7-(3,4-difluorophenyl)-1,6-naphthyridin-4-yl)oxy)phenyl)-N-(4-fluorophenyl)cyclopropyl-1,1-dicarboxamide]
- IC50 (EBC-1 cells): 10 to 100 nM
- IC50 (c-Met kinase): 1 to 10 nM

SMILES: Cn1cc(-c2cc3nccc(Oc4ccc(NC(=O)c5c[nH]cc(-c6ccc(F)cc6)c5=O)cc4F)c3cn2)cn1 [Compound 54S, N-(3-fluoro-4-((7-(1-methyl-1H-pyrazol-4-yl)-1,6-naphthyridin-4-yl)oxy)phenyl)-5-(4-fluorophenyl)-4-oxo-1,4-dihydropyridine-3-carboxamide]
- IC50 (EBC-1 cells): 10 to 100 nM
- IC50 (c-Met kinase): 1 to 10 nM

SMILES: O=C(Nc1ccc(F)cc1)C1(C(=O)Nc2ccc(Oc3ccnc4nc(Cl)cnc34)c(F)c2)CC1 [Compound 55S, N-(4-((3-chloropyrido[2,3-b]pyrazin-8-yl)oxy)-3-fluorophenyl)-N-(4-fluorophenyl)cyclopropyl-1,1-dicarboxamide]
- IC50 (EBC-1 cells): 1000 to 10000 nM
- IC50 (c-Met kinase): 10 to 100 nM

SMILES: O=C(Nc1ccc(F)cc1)C1(C(=O)Nc2ccc(Oc3ccnc4ncc(Cl)nc34)c(F)c2)CC1 [Compound 56S]
- IC50 (EBC-1 cells): 1000 to 10000 nM
- IC50 (c-Met kinase): 100 to 1000 nM

SMILES: O=C(Nc1ccc(F)cc1)C1(C(=O)Nc2ccc(Oc3ccnc4nc(N5CCOCC5)cnc34)c(F)c2)CC1 [Compound 57S]
- IC50 (EBC-1 cells): 1000 to 10000 nM
- IC50 (c-Met kinase): 10 to 100 nM

SMILES: O=C(Nc1ccc(F)cc1)C1(C(=O)Nc2ccc(Oc3ccnc4ncc(N5CCOCC5)nc34)c(F)c2)CC1 [Compound 58S]
- IC50 (EBC-1 cells): 1000 to 10000 nM
- IC50 (c-Met kinase): 100 to 1000 nM

SMILES: CN1CCN(c2cnc3c(Oc4ccc(NC(=O)C5(C(=O)Nc6ccc(F)cc6)CC5)cc4F)ccnc3n2)CC1 [Compound 59S, N-(3-fluoro-4-((3-(4-methylpiperazin-1-yl)pyrido[2,3-b]pyrazin-8-yl)oxy)phenyl)-N-(4-fluorophenyl)cyclopropyl-1,1-dicarboxamide]
- IC50 (EBC-1 cells): 100 to 1000 nM
- IC50 (c-Met kinase): 1 to 10 nM

SMILES: O=C(Nc1ccc(F)cc1)C1(C(=O)Nc2ccc(Oc3ccnc4nc(OCCN5CCOCC5)cnc34)c(F)c2)CC1 [Compound 60S, N-(3-fluoro-4-((3-(2-morpholinoethoxy)pyrido[2,3-b]pyrazin-8-yl)oxy)phenyl)-N-(4-fluorophenyl)cyclopropyl-1,1-dicarboxamide]
- IC50 (EBC-1 cells): 1000 to 10000 nM
- IC50 (c-Met kinase): 10 to 100 nM

SMILES: O=C(Nc1ccc(F)cc1)C1(C(=O)Nc2ccc(Oc3ccnc4nc(NCCCN5CCOCC5)cnc34)c(F)c2)CC1 [Compound 62S, N-(3-fluoro-4-((3-((3-morpholinopropyl)amino)pyrido[2,3-b]pyrazin-8-yl)oxy)phenyl)-N-(4-fluorophenyl) cyclopropyl-1,1-dicarboxamide]
- IC50 (EBC-1 cells): 1000 to 10000 nM
- IC50 (c-Met kinase): 10 to 100 nM

SMILES: O=C(Nc1ccc(F)cc1)C1(C(=O)Nc2ccc(Oc3ccnc4ncc(NCCCN5CCOCC5)nc34)c(F)c2)CC1 [Compound 63S, N-(3-fluoro-4-((2-((3-morpholinopropyl)amino)pyrido[2,3-b]pyrazin-8-yl)oxy)phenyl)-N-(4-fluorophenyl) cyclopropyl-1,1-dicarboxamide]
- IC50 (EBC-1 cells): 1000 to 10000 nM
- IC50 (c-Met kinase): 1 to 10 nM

SMILES: O=C(Nc1ccc(F)cc1)C1(C(=O)Nc2ccc(Oc3ccnc4nc(N5CCNCC5)cnc34)c(F)c2)CC1 [Compound 64S, N-(4-((3-piperazinyl-pyrido[2,3-b]pyrazin-8-yl)oxy)-3-fluorophenyl)-N-(4-fluorophenyl)cyclopropyl-1,1-dicarboxamide]
- IC50 (EBC-1 cells): 1000 to 10000 nM
- IC50 (c-Met kinase): 1 to 10 nM

SMILES: O=C(Nc1ccc(F)cc1)C1(C(=O)Nc2ccc(Oc3ccnc4ncc(N5CCNCC5)nc34)c(F)c2)CC1 [Compound 65S, N-(4-((2-piperazinyl-pyrido[2,3-b]pyrazin-8-yl)oxy)-3-fluorophenyl)-N-(4-fluorophenyl)cyclopropyl-1,1-dicarboxamide]
- IC50 (EBC-1 cells): 1000 to 10000 nM
- IC50 (c-Met kinase): 1000 to 10000 nM

SMILES: O=C(Nc1ccc(F)cc1)C1(C(=O)Nc2ccc(Oc3ccnc4ncc(OCCN5CCOCC5)nc34)c(F)c2)CC1 [Compound 67S, N-(3-fluoro-4-((2-(2-morpholinoethoxy)pyrido[2,3-b]pyrazin-8-yl)oxy)phenyl)-N-(4-fluorophenyl)cyclopropyl-1,1-dicarboxamide]
- IC50 (EBC-1 cells): 1000 to 10000 nM
- IC50 (c-Met kinase): 1000 to 10000 nM

SMILES: O=C(Nc1ccc(F)cc1)C1(C(=O)Nc2ccc(Oc3ccnc4ncc(OCCCN5CCOCC5)nc34)c(F)c2)CC1 [Compound 68S, N-(3-fluoro-4-((2-(3-morpholinopropoxy)pyrido[2,3-b]pyrazin-8-yl)oxy)phenyl)-N-(4-fluorophenyl)cyclopropyl-1,1-dicarboxamide]
- IC50 (EBC-1 cells): 1000 to 10000 nM
- IC50 (c-Met kinase): 1000 to 10000 nM

SMILES: C[C@@H](Oc1cc(-c2cnn(C3CCNCC3)c2)cnc1N)c1c(Cl)ccc(F)c1Cl [PF2341066, Crizotinib, reference compound]
- TV (mm^3, mean ± SD) d0 ([2]; d0): 123 ± 25 mm^3
- Weight (g) d0 ([2]; d0): 17.2 g
- RTV (mean ± SD) ([2]; d21): 0.00 ± 0.00
- T/C (%) ([2]; d21): 0.00%
- TV (mm^3, mean ± SD) d21 ([2]; d21): 0 ± 0 mm^3
- Weight (g) d21 ([2]; d21): 19.6 g
